Results taken from article PMC8290497, “Taxifolin, an Inhibitor of Sortase A, Interferes With the Adhesion of Methicillin-Resistant Staphylococcal aureus” (Frontiers in Microbiology, 2021).

What was measured:
[1] = tested on: S. aureus USA300 pneumonia in C57BL/6J mice; assay: Murine model of MRSA-induced pneumonia; type: in vivo, mouse
Protocol: To investigate the therapeutic capability of Tax to treat acute pneumonia infection caused by S. aureus USA300, 6- to 8-week-old female C57BL/6J mice were infected intranasally with 2 × 10^8 CFU of S. aureus USA300, then held upright for 30 s to ensure each animal inhaled the bacteria into their lungs. Two h post-infection, the mice were subcutaneously injected with Tax (100 mg/kg). Similarly, mice were challenged with ΔsrtA and sterile PBS containing 0.5% DMSO (control group) as controls. To assess survival, the mice were checked every 12 h for 96 h, and the percentage that had survived was recorded.
For bacterial counts in lung tissue and histopathological examination, mice were infected intranasally with 30 μL (1 × 10^8 CFUs) of S. aureus USA300. Tax (100 mg/kg) was then injected subcutaneously every 12 h after inoculation. The bacterial load in the lungs was determined after the mice in each group were sacrificed 48 h post-infection. The left lung from each animal was removed aseptically and processed to count the bacterial CFUs. The right lung of each mouse was aseptically removed and analyzed by conventional hematoxylin and eosin (H&E) staining using an optical microscope. The ratio of wet to dry lung tissue weight (W/D ratio) was recorded in each case. Wet lung weight was measured 1 min after surface moisture had been removed. Dry lung weight was determined after dehydration at 80°C. The W/D ratio is used to reveal the degree of tissue edema ([Xia et al., 2016]).
FIGURE 6 Effect of treatment with Tax on S. aureus-induced pneumonia in mice. (A) Effect of Tax on the survival of mice (n = 10 per group) infected with a lethal dose of S. aureus. (B) Effect of Tax (100 mg/kg) on bacterial load in the lungs of mice (n = 6). (C) Gross pathological changes and histopathology of mouse lungs treated with Tax (100 mg/kg/d) or untreated. Scale bar: 50 μm. (D) Lung wet-to-dry weight ratio (W/D). Each value represents mean ± SD (n = 5 per group). **P < 0.01, ***P < 0.001; Mann-Whitney test, two-tailed. Horizontal bars represent mean values. Animal data were obtained from two separate experiments.

[2] = tested on: HEK293 cells; assay: CCK-8 cytotoxicity assay, HEK293; type: cell-based
Protocol: Cytotoxicity was determined using a cell counting kit-8 assay (CCK-8, US EVERBRIGHT, Suzhou, China), as described previously ([Xiao et al., 2018]). HEK293 or HepG2 cells were seeded in 96-well plates (Corning, United States) at a density of 5 × 10^4 cells/well, then incubated at 37°C in an atmosphere containing 5% CO2 for 24 h. The culture medium was then exchanged with fresh medium containing different concentrations of Tax (0–200 μM) or vehicle and incubated for an additional 24 h. CCK-8 solution (10 μL) was carefully added then incubated for 4 h in an incubator at 37°C. The OD value at 450 nm was measured to calculate cell viability.
FIGURE 2 Growth curve and cytotoxicity. (A) Growth curves of S. aureus USA300 and the ΔsrtA group with different concentrations of Tax. (B) Growth rate of S. aureus USA300 and S. aureus treated with Tax (25 μM). (C) Percent cell viability of HEK293 (purple) and HepG2 (blue) cells were measured using a CCK-8 assay after incubation with Tax for 24 h.

[3] = target: T1, S. aureus SrtA (Staphylococcus aureus, UniProt Q2FV99); assay: FRET assay of SrtA transpeptidation (cleavage of Abz-LPATG-Dap(Dnp)-NH2); type: biochemical
T1 construct: 6xHis; made in house; host or cells: E. coli BL21 (DE3), plasmid pET28a-SrtA
T1 sequence (Q2FV99 whole entry): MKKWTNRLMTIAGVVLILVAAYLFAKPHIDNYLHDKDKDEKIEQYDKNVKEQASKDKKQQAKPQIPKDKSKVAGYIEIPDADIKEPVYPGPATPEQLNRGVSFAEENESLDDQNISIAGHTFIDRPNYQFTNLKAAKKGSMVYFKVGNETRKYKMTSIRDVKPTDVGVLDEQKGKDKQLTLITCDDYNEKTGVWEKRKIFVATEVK
Protocol: Fluorescence resonant energy transfer (FRET) was used to determine the effect of Tax on SrtA, as described previously ([Kruger et al., 2002]). Briefly, 4 μM purified recombinant SrtA was combined with various concentrations of Tax then added to assay buffer consisting of 50 mM Tris-HCl, 5 mM CaCl2, 150 mM NaCl, at pH 7.5, to a final volume of 200 μL. Following incubation of the mixture at 37°C for 1 h, substrate peptide was added to a final concentration of 10 μM and incubated for an additional 30 min. Fluorescence intensity was measured at excitation and emission wavelengths of 309 and 420 nm, respectively.
To identify novel inhibitors of SrtA, an in-house library containing 420 natural compounds was screened, using a FRET assay. […] To further clarify the interacting way of SrtA and Tax, recombinant SrtA was reacted with Tax at a concentration of 10-fold IC50. A total of 85.80 ± 0.67% of SrtA activity was subsequently recovered, compared with the control group (DMSO) (Figure 1C).
FIGURE 1 Inhibition of SrtA transpeptidation. (A) Chemical structure of Tax. […] Each reaction condition was assayed in triplicate from which the IC50 was determined. (C) Recombinant SrtA was treated with 10 × IC50 of Tax and then diluted, after which transpeptidation activity was measured using a FRET assay. […]

[4] = tested on: adhesion of S. aureus USA300 to fibrinogen; assay: Fibrinogen binding assay (crystal violet); type: cell-based; details: Staphylococcus aureus, USA300, read-out: inhibition rate of adhesion of bacteria to fibrinogen
[5] = tested on: BALB/c mice; details: mouse, in vivo, ip, 200 mg/kg
Protocol: An injection of PBS represented the control group. Symptoms of poisoning or abnormal behavior were monitored, and survival of the mice in each group was recorded after 72 h.

SMILES: O=C1c2c(O)cc(O)cc2OC(c2ccc(O)c(O)c2)C1O (stereo not drawn) [Tax, taxifolin]
- bacterial load in the lungs ([1]; Tax 100 mg/kg subcutaneous every 12 h, 48 h post-infection): 6.73 ± 0.69 lg CFU/g
- lung histopathology ([1]; Tax 100 mg/kg, infected mice, H&E staining): significantly reduced inflammation
- lung wet-to-dry weight ratio (W/D) ([1]; Tax 100 mg/kg, infected mice, P < 0.001): 5.35 ± 0.34
- survival rate of mice ([1]; lethal dose S. aureus USA300 intranasal, Tax 100 mg/kg subcutaneous, 96 h, p < 0.01): 50%
- toxicity toward mammalian cells (HEK293) ([2]; 200 μM): did not display toxicity
- cytotoxicity toward HEK293 cells ([2]; at 24.53 ± 0.42 μM, 24 h): no significant cytotoxicity
- IC50 [3]: 24.5 ± 0.42 µM
- inhibition at 200 µM [4]: 35.1 ± 0.49%
- acute toxicity, signs observed [5]: no signs of malaise, or tardy or inanimate behavior
